This note sets out measurements from patent US10308682B2, “Inhibition of tumor growth with aggregates of small molecules” (BRANDEIS UNIVERSITY, priority 2013, dated 2019).

One series deals with MCF-7. Description: Cell viability assay (MTT), MCF-7. The format is cell-based. As for the experimental part:
(§1) Cells in exponential growth phase were seeded in a 96 well plate at a concentration of 50,000 cell/well. The cells were allowed to attach to the wells for 24 h at 37° C., 5% CO2, then the culture medium was removed and 100 μL new culture medium containing 1 at gradient concentrations was placed into each well. After culturing at 37° C., 5% CO2 for desired time, each well was added by 10 μL of 5 mg/mL MTT 43-(4,5-Dimethylthiazol-2-yl)-2,5-diphenyltetrazolium bromide), and the plated cells were incubate at dark for 4 h. 100 μL 10% SDS with 0.01 M HCl was added to each well to stop the reduction reaction and to dissolve the purple. After incubation of the cells at 37° C. for overnight, the viability is measured. Data represent the mean±standard deviation of three independent experiments.
(§2) The estimation of the threshold concentration of aggregation (320-340 μM) for 1 allows us to examine the cytotoxicity of 1 in monomer and molecular aggregate forms. We first tested the cytotoxicity of 1 towards HeLa cells, the most widely studied cancer cell line, below and above the threshold concentration.

The subject of another series is T98G. Description: Cell viability assay (MTT), T98G. It counts as cell-based. Here is the method: as §1, §2
Another series deals with Capan-2. Description: Cell viability assay (MTT), Capan-2. It counts as cell-based. As for the experimental part:
as §1, §2

Series [1] concerns HeLa cells. Nature of the series: Intracellular concentration of 1 in HeLa cells by LC-MS. It counts as cell-based. To be noted: incubated with 300 μM and 400 μM for 24 h. Here is the method:
FIG. 3 depicts the response of cancer cells toward molecular aggregates of 1. (a) Intracellular concentration of 1 in HeLa cells treated with 1 for 12 h at different temperatures measure by LC-MS (left bar=37° C.; right bar=4° C.). (b) Confocal images of FITC annexin V and PI stained HeLa cells without incubation with 1 (live cells), HeLa cells treated with 400 μM of 1 for 36 h, and necrotic HeLa cells (induced by DMSO). Scale bar=20 μm. (c) Fluorescence emission of 7-AAD and 1 in cell lysate (15,000 cell/mL) at λex=488 nm. (d) Cell cycle analysis, by flow cytometry, of HeLa cells treated with 0, 300 or 400 μM of 1 for 24 h. Depletion of G2/M phase occurs in cells treated with 400 μM of 1. […] The gaps were created on the HeLa cells of 100% confluence in 24 well plates, and measured after incubation for 18 h.
The cytotoxicity of the molecular aggregates of 1 toward the cancer cells in cell assays and on animal model warrants further examination on the mechanism of the cell death. […] We measured the intracellular concentrations of 1 in the lysate of the HeLa cells incubated with 300 μM and 400 μM of 1 for 24 h (FIG. 3a) at 37° C. or 4° C. Based on the amount of 1, measured by liquid chromatography-mass spectroscopy (LC-MS) and the estimated total cell volume, the concentration of 1 inside the cells is about 150% of the concentration of 1 used for the incubation at 37° C. […]

Series [2] has as its system HeLa cells. Nature of the series: FITC annexin V / PI staining of HeLa cells. It counts as cell-based. To be noted: 400 μM, 36 h. The text has this:
To determine the process of cell death induced by the aggregates of 1, we used FITC conjugated annexin V and propidium iodide (PI) to stain the cells (FIG. 3b). Being membrane impermeable, PI discriminates viable cells from late apoptotic or necrotic cells, and FITC conjugated annexin V binds to plasma membrane of apoptotic and necrotic cells as the former ones have extracellular exposed phosphatidylserine and the latter ones lose membrane integrity.

The target of another series is T1, tubulin heterodimers (Sus scrofa, UniProt P02550+P02554).
T1 construct: purchased Cytoskeleton
T1 sequence (P02550 whole entry): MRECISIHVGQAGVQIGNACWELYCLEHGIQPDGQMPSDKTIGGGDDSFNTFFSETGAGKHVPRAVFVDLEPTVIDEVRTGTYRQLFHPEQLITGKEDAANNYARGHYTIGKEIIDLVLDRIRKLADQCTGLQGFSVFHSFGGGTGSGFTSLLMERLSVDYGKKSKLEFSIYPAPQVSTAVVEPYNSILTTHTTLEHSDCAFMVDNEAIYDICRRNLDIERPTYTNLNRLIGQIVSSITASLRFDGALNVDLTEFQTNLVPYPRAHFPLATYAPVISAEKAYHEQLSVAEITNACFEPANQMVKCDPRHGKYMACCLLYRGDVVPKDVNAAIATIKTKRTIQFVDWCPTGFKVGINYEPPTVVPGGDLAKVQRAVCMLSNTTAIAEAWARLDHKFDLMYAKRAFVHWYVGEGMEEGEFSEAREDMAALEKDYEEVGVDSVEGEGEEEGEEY
T1 sequence (P02554 whole entry): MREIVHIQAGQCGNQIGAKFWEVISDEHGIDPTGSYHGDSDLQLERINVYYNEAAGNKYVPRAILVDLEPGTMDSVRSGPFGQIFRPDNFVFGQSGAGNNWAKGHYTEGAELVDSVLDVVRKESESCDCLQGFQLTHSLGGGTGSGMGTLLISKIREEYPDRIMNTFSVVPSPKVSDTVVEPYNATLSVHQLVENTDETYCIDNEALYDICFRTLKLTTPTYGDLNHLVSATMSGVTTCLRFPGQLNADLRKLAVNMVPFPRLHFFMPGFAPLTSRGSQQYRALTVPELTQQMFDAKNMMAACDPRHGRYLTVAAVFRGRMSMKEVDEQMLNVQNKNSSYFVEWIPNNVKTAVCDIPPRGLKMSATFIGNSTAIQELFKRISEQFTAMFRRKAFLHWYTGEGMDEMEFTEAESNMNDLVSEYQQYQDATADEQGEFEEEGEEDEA
Description: In vitro tubulin polymerization assay. The format is biochemical. The source says:
Tubulin polymerization assay in the presence of 1. In vitro tubulin polymerization reactions in (a) as prepared or (c) filtered reaction cocktail without 1 (control) or with different concentrations of 1. The amount of microtubule is in proportion to optical density at 340 nm. The calculated polymerization rate (Vmax) and the final tubulin polymer mass vs concentrations of 1 from tubulin polymerization in (b) as prepared or (d) filtered reaction cocktail. Negative stained TEM images of molecular aggregates of 1 binding with tubulin. Buffer (control) or 1 (final concentration at 200 to 500 μM) was introduced into reaction cocktail containing fully assembled microtubule (after 60 min of polymerization). The amount of microtubule remain unchanged after 30 min. (e) Molecular aggregates of 1 (400 μM) incubated with tubulins heterodimers in general tubulin buffer. Scale bar=40 nm. White arrows point at tubulin clusters on the molecular aggregates of 1. Confocal images of tubulin stained HeLa and other cell lines. (f) Time dependent cytotoxicity of 1 towards HeLa cells. Data are presented as mean±SD of three independent experiments. Tubulin staining of HeLa cells treated with as-prepared medium containing (g) 0 μM, (h) 200 μM, (i) 300 μM and (j) 400 μM of 1, and filtered medium (k) containing 400 μM of 1 for 24 h. Insets are 3× enlarged images. T98G (l, m) and PC12 (n, o) were also treated with as-prepared medium containing 0 or 400 μM of 1 for 24 h for tubulin staining DNA was counterstained blue by DAPI. Scale bar=10 μm. See also FIG. 12.
As the major function of tubulin is to polymerize into microtubule, we carried out in vitro tubulin polymerization assay to evaluate how the molecular aggregates of 1 affect the polymerization of tubulin. We incubated tubulin heterodimers (i.e., the α- and β-tubulin heterodimer, existing almost exclusively in heterodimer form in cytoplasm) with 1 at different concentrations and monitored the formation of microtubule (FIG. 5). […] At 300 μM of 1, the polymerization curve starts to deviate slightly from the control curve. […] To confirm that the molecular aggregates of 1, but not monomeric 1, inhibit the formation of microtubules, we filtrated of the reaction mixture by a 0.22 μm PVDF filter before the addition of tubulins. […] However, filtrated reaction mixtures containing 200 to 500 μM of 1 has similar polymerization curve to that of control.

For `O=C(Cc1ccc2ccccc2c1)N[C@@H](Cc1ccccc1)C(=O)N[C@@H](Cc1ccccc1)C(=O)O` [Compound 1], the “cytotoxicity towards MCF-7” value in the series on MCF-7 is “decreases of cell viabilities only observed at 400 and 500 μM”. Moreover, in the series on T98G, the “cytotoxicity towards T98G” value was “decreases of cell viabilities only observed at 400 and 500 μM”. Besides, the “cytotoxicity towards Capan-2” value with Capan-2 was “decreases of cell viabilities only observed at 400 and 500 μM”. Besides, the “concentration of 1 inside the cells” value in the series on HeLa cells [1] (4° C.) is recorded as “about 30 % of the incubating concentration”; with HeLa cells [1] (37° C.), “about 150 % of the concentration of 1 used for the incubation”. Moreover, the “process of cell death” value with HeLa cells [2] is on record as “induce apoptosis”. Further, the “polymerization rate (Vmax)” value was “barely inhibits the polymerization of tubulins” at tubulin heterodimers (200 μM or 300 μM, as prepared) and “drastically decreases the Vmax” on tubulin heterodimers (400 or 500 μM, as prepared). Also, on tubulin heterodimers (300 μM, as prepared), the “final amount of polymers (microtubule)” value is “slightly decreases the amount of microtubules”. Also, the “reduction of final amount of polymers (microtubule)” value on tubulin heterodimers (400 or 500 μM, as prepared) was “about 30 % decrease”. Further, at tubulin heterodimers (400 or 500 μM, filtered by 0.22 μm PVDF filter), the “Vmax and final amount of polymers after filtration” value was “only causes slight decreases in both Vmax and the final amount of polymers of tubulins”.
